Consider three compounds from PMC7760514, “Fatty Acid Conjugation Leads to Length-Dependent Antimicrobial Activity of a Synthetic Antibacterial Peptide (Pep19-4LF)” (Antibiotics, 2020).

≈ marks a conversion by molar mass, not a printed value. Peptide text beside a SMILES is read from it. * marks the point of attachment. Hexanoyl = CCCCCC(=O)* Where only a bound is given, the exact number is not on record here.

The subject of data set [1] is Rothia kristinae (DSM 20032). In words: Minimal inhibitory concentration (MIC), broth microdilution. The format is cell-based. The following applies: Table 3 of supplement, n=3; unit inferred; 37 ± 1 °C. The protocol: (§1) Minimal inhibitory concentrations (MICs) were determined against Gram-positive Enterococcus faecium vanA (UL 602570*, clinical isolate from Institute for Medical Microbiology and Hygiene, Heidelberg University Hospital, Heidelberg, Germany), Staphylococcus aureus (ATCC 25923), Rothia kristinae (DSM 20032), and Gram-negative Acinetobacter bohemicus (DSM 100419) (all obtained from the Department of Infectious Diseases, Medical Microbiology and Hygiene, Heidelberg University, Heidelberg, Germany) in a 96-well polypropylene plate (650261 Greiner Bio-One GmbH, Frickenhausen, Germany) according to European Committee on Antimicrobial Susceptibility Testing (EUCAST) and The Clinical & Laboratory Standards Institute (CLSI) guidelines. Briefly, the stock solutions of the peptide conjugates in water were adjusted to a concentration of 1.28 mg/mL. Starting with the highest concentration of 64 μg/mL in 96-well polypropylene plates, dilution series in cation-adjusted Mueller–Hinton broth (MHB II; Sigma Aldrich, Steinheim, Germany) were performed, resulting in the lowest concentration of 0.125 μg/mL. A logarithmic growing bacterial culture was adjusted to a McFarland corresponding to 1 × 10^8 cfu/mL using a McFarland counter (DensiCHEK® plus, bioMerieux, Marcy-l’Étoile, France). Finally, a bacterial suspension of 1 × 10^6 cfu/mL (further diluted in MHB II) was added to each peptide-conjugate concentration. Thus, the final bacterial concentration in each well was 5 × 10^5 cfu/mL. The bacteria were incubated at 37 ± 1 °C (for A. bohemicus: 30 ± 1 °C) overnight and the bacterial growth was analyzed after 18 to 20 h. The MIC was defined as the lowest concentration of substance without any visible growth. Vancomycin and colistin sulfate were purchased from Sigma-Aldrich Chemie GmbH, München, Germany and Carl Roth GmbH, Karlsruhe, Germany.
For orientation: In broth dilution the organism is exposed to a series of concentrations in liquid medium.

In data set [2] the test system is Acinetobacter bohemicus (DSM 100419). The data set is described as above. The following applies: 30 ± 1 °C; for MIC value: Table S2, n=3, no unit given (main text uses µg/mL). Also on record: key to MIC value: MIC in μg/mL (lowest concentration without visible growth). The format is cell-based. On the procedure:
as §1

Data set [3] has the same test system. In words: Minimal bactericidal concentration (MBC). The format is cell-based. The following applies: Table S2, n=3; unit inferred; lowest concentration killing 99.9% of the inoculum; agar 24 h, 30 ± 1 °C. On the procedure: (§2) Minimal bactericidal concentrations (MBCs) were determined by pipetting 3 µL of each broth dilution solution without visible growth onto a new agar plate. The agar plates were incubated at 37 ± 1 °C (for A. bohemicus: 30 ± 1 °C) for 24 h and were again analyzed with respect to bacterial growth. MBC is defined as the lowest concentration killing 99.9% of the inoculum.

Data set [4] relates to Rothia kristinae (DSM 20032). In words: Minimal bactericidal concentration (MBC). The format is cell-based. The following applies: Table 3 of supplement, n=3; unit inferred; lowest concentration killing 99.9% of the inoculum; agar 24 h, 37 ± 1 °C. On the procedure:
as §2

The next data set has as its system red blood cells. The class given is cell-based, human. On the procedure: A hemolysis assay was performed using heparinized blood for Pep19-4LF, Pep19-2.5, C6-Pep19-short, C11-Pep19-short, and C18-Pep19-short to test the toxicity against red blood cells and selectivity against bacterial cells. A 600 µM stock solution of each peptide was prepared in 0.9% NaCl. Heparinized blood was taken from three individual fasted, healthy volunteers. To purify the erythrocytes, the blood was centrifuged at 2500 rpm for 10 min and the supernatant was removed. The cell-pellet was resuspended in standard PBS. The centrifugation step was repeated for three times until the supernatant was visibly clear. A 96-well v-bottom plate (Greiner Bio-One International GmbH, Kremsmünster, Austria) was loaded as follows: row 1 (A1-H1) was preloaded with 100 µL of 600 µM peptide stock solution and row 12 (A12-H12) was preloaded with 50 µL 10% Triton X-100 (PerkinElmer, Boston, USA) and served as a positive control. […] Fifty µL of the supernatant was then transferred to a new 96-well flat-bottom plate (Greiner Bio-One International GmbH, Kremsmünster, Austria) and the absorbance was measured at a wavelength of 554 nm, using an Infinite M200 PRO microplate reader (Tecan Trading, Maennedorf).
Hemolysis was calculated with the following equation: Hemolysis [%]= Aconjugate− Ablank/ATriton− Ablank

Data set [5] concerns Rothia kristinae (DSM 20032). As to the kind of experiment: Time-kill studies. The following applies: for change in number of cfu/mL: 0.5 × MIC, 0 to 8 h; for change in number of cfu/mL / time until all bacteria killed / no detectable cfu / mode of action: n = 3; for time until all bacteria killed: n=3; for time until all bacteria killed / no detectable cfu / mode of action: 4 × MIC; for time until all bacteria killed / no detectable cfu: 1 × 10^6 cfu/mL in MHB II, 37 °C. The class given is cell-based. On the procedure: Time–kill studies were performed in accordance with CLSI guidelines. Therefore, Rothia kristinae DSM 20032 was adjusted to a concentration of 1 x 10^8 cfu/mL and further diluted to 1 × 10^6 cfu/mL in cation-adjusted MHB II. According to the previous determined MIC values of Pep19-4LF, C11-Pep19-4LF, and bacitracin (positive control) (Sigma Aldrich Chemie GmbH, München, Germany), samples were taken for 4 × MIC, 2 × MIC, 1 × MIC, and 0.5 × MIC after 30 min, 1 h, 2 h, 4 h, and 8 h. These samples were diluted in sterile saline and 10 µL of each sample was loaded onto agar plates. A bacterial suspension of 1 × 10^6 cfu/mL served as a growth control. Incubation occurred at 37 ± 1 °C and all counted colonies were recalculated to the colony number in the original inoculum.

The format of data set [6] is physicochemical. The text has this: The high MIC value of Pep19-short indicates the importance of a hydrophobic moiety for this synthetic antimicrobial peptide. […] If the length of the fatty acid is too short, the interaction between the peptide conjugate and components of the bacterial cell membrane might be unfavorable, thus leading to loss of efficiency. Fatty acids of medium chain length enable a stable plateau of low MIC values, indicating a more efficient interaction between the peptide conjugate and bacterial cells. […] A detailed interaction between Pep19 peptides and membrane-bound toxins was previously described by Correa et al.. […] A hypothesized mechanism for this interaction represents the reorganization of the bacterial membrane leading in an inability to maintain the osmotic pressure. Here, the positively-charged amino acids of the peptide conjugate might interact with the negatively-charged compounds of the bacterial cell wall and the hydrophobic part interacts with hydrophobic lipids of the bacterial membrane. Several mechanisms for a membrane disruption by amphiphilic peptides were further described by Sato and Feix. With respect to the parent peptide Pep19-4LF, the hydrophobic moiety was located at the C-terminus. As the synthesis leads to peptides that are linked to the resin via their C-terminus, the fatty acids were linked to the free N-terminus of the peptide. […]

The conditions of data set [7]: rat, in vivo, iv.
Protocol: For this purpose, the tyrosine residues of the peptides were radiolabeled with ^125I (Hartmann Analytic GmbH, Braunschweig, Germany) using the chloramine-T method [28]. Free ^125I was separated by preparative HPLC as previously described by Schieck et al. [22]. Approximately 2 to 4 MBq of the radiolabeled peptides was injected intravenously into the tail vein and images were recorded immediately post injection and after 1 h, 2 h, 3 h, 5 h, and 24 h. Scintigraphical images were obtained by using a γ-camera (Gamma Imager, Biospace Lab, Paris, France).
Data set [8] relates to Enterococcus faecium (UL602570*, clinical isolate, vanA-resistant). As to the kind of experiment: Minimal inhibitory concentration (MIC), broth microdilution. The format is cell-based. The following applies: cation-adjusted MHB II, 5 × 10^5 cfu/mL, 37 ± 1 °C, read after 18 to 20 h, n = 3. The protocol: as §1
For data set [9], the system named is Staphylococcus aureus (ATCC 25923). The description is as above. The class given is cell-based. The following applies: cation-adjusted MHB II, 5 × 10^5 cfu/mL, 37 ± 1 °C, read after 18 to 20 h, n = 3. The protocol: as §1

Consider `CCCCCC(=O)NCC(=O)N[C@@H](CCCCN)C(=O)N[C@@H](CCCCN)C(=O)N[C@@H](Cc1ccc(O)cc1)C(=O)N[C@@H](CCCNC(=N)N)C(=O)N[C@@H](CCCNC(=N)N)C(=O)N[C@@H](Cc1ccccc1)C(=O)N[C@@H](CCCNC(=N)N)C(=O)N[C@@H](Cc1c[nH]c2ccccc12)C(=O)N[C@@H](CCCCN)C(=O)N[C@@H](Cc1ccccc1)C(=O)N[C@@H](CCCCN)C(=O)NCC(=O)N[C@@H](CCCCN)C(N)=O` [C6-Pep19-short] (Hexanoyl-GKKYRRFRWKFKGK-NH2), for which the MIC value in data set [1] was found to be 16 µg/mL (≈ 8.07 µM); in data set [2], 16. Further, the figures for the MBC value in [3] and in data set [4] were 16 µg/mL (≈ 8.07 µM) and 32 µg/mL (≈ 16.1 µM), respectively. Further, the hemolytic activity entry in the data set on red blood cells is reported as “no hemolytic activity”.
Take C11-GKKYRRFRWKFKGK [C11-Pep19-short]: the MIC value in data set [1] turned out to be 4 µg/mL; in data set [2] it was 4. Moreover, the MBC value in data set [3] and in [4] was 4 µg/mL each time. For the same compound, in data set [5], the “change in number of cfu/mL” value is listed as “only a small decrease in the number of cfu/mL”. Besides, the results for the “time until all bacteria killed” value in data set [5] (1 × MIC) and in data set [5] (2 × MIC) were 4 h and 0.5 h, respectively. The “time until all bacteria killed / no detectable cfu” value in data set [5] was at most 30 min. Besides, the mode of action result in data set [5] was “fast and bactericidal mode of action”. In addition, the solubility in water entry in data set [6] is on record as “high solubility in water”. Also, the “speed of elimination compared among the peptides” value in data set [7] is “faster excretion from the body”.
As for GKKYRRFRWKFKGKLFLFG-NH2 [Pep19-4LF], the MIC in data set [8] worked out at 8 µg/mL; in data set [9], 32 µg/mL; in data set [2] (broth microdilution, cation-adjusted MHB II, 5 × 10^5 cfu/mL, read after 18 to 20 h, n = 3), 8 µg/mL. For the same compound, the results for the MIC value in [1] and in data set [2] were 8 µg/mL and 8, respectively. Also, the MBC value in data set [3] and in data set [4] was 8 µg/mL throughout. The “change in number of cfu/mL” value in data set [5] is on record as “only a small decrease in the number of cfu/mL”. For the same compound, the “time until all bacteria killed” value was above 8 h in [5] (1 × MIC) and 1 h in data set [5] (2 × MIC). The “time until all bacteria killed / no detectable cfu” value in [5] is reported as 30 min. Further, in [5], the mode of action entry was “bactericidal mode of action”. Further, the solubility in water result in data set [6] was “very low solubility in water”. Moreover, the “speed of elimination compared among the peptides” value in data set [7] is reported as “slowest elimination”.

As usually defined, the MIC is the lowest concentration found to suppress growth.
